The structures appear in SMILES notation.

Consider 24 compounds from patent publication US10975077B2 (Novira Therapeutics, Inc., priority 2016, dated 2021).

One assay has as its system HBV (encapsidated HBV DNA, HepG2.2.15 cells). Description: HBV replication inhibition assay, BDNA assay in HepG2.2.15 cells. To be noted: Activity in BDNA-assay. The format is cell-based. Summed up:
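Encapsidated HBV DNA in DNase-treated, proteinase K-lysed supernatant was measured by branched DNA after 6 days' compound exposure, refreshed on day 3, of HepG2.2.15 cells in 0.5% DMSO. Signals normalized to DMSO-treated wells; EC50 from nonlinear regression of inhibition against log concentration.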
As for `CN1CC(CNCC(F)F)Cn2nc3c(c2C1=O)CN(C(=O)Nc1ccc(F)c(C(F)(F)F)c1)CC3` (single isomer, unassigned) [Compound 119_E1, (R*)-8-(((2,2-difluoroethyl)amino)methyl)-N-(4-fluoro-3-(trifluoromethyl)phenyl)-10-methyl-11-oxo-1,3,4,7,8,9,10,11-octahydro-2H-pyrido[4′,3′:3,4]pyrazolo[1,5-a][1,4]diazepine-2-carboxamide], the EC50 (in general, the midpoint of the concentration-response curve) was in the range of 100 to 500 nM.
On to `C[C@@H]1Cc2nn3c(c2CN1C(=O)Nc1ccc(F)c(Br)c1F)C(=O)N(C)CC(CO)C3` (single isomer, unassigned) [Compound 084_D1, (3R,8S*)—N-(3-bromo-2,4-difluorophenyl)-8-(hydroxymethyl)-3,10-dimethyl-11-oxo-1,3,4,7,8,9,10,11-octahydro-2H-pyrido[4′,3′:3,4]pyrazolo[1,5-a][1,4]diazepine-2-carboxamide], for which the EC50 was in the range of 100 to 500 nM.
On the same count and under the same terms, then `CN1CC(CNCC(F)F)Cn2nc3c(c2C1=O)CN(C(=O)Nc1ccc(F)c(Br)c1F)CC3` (single isomer, unassigned) [Compound 129_E2, (S*)—N-(3-bromo-2,4-difluorophenyl)-8-(((2,2-difluoroethyl)amino)methyl)-10-methyl-11-oxo-1,3,4,7,8,9,10,11-octahydro-2H-pyrido[4′,3′:3,4]pyrazolo[1,5-a][1,4]diazepine-2-carboxamide], with 1 to 100 nM; and `C[C@@H]1Cc2nn3c(c2CN1C(=O)Nc1cc(Cl)c(F)cc1F)C(=O)N(C)CC(CO)C3` (single isomer, unassigned) [Compound 090_D2, (3R,8R*)—N-(5-chloro-2,4-difluorophenyl)-8-(hydroxymethyl)-3,10-dimethyl-11-oxo-1,3,4,7,8,9,10,11-octahydro-2H-pyrido[4′,3′:3,4]pyrazolo[1,5-a][1,4]diazepine-2-carboxamide], with 1 to 100 nM.
For the compound `CCC(O)C1CN(C)C(=O)c2c3c(nn2C1)CCN(C(=O)Nc1ccc(F)c(C#N)c1F)C3` (single isomer, unassigned) [Compound 098_E2, (S*)—N-(3-cyano-2,4-difluorophenyl)-8-((R*)-1-hydroxypropyl)-10-methyl-11-oxo-1,3,4,7,8,9,10,11-octahydro-2H-pyrido[4′,3′:3,4]pyrazolo[1,5-a][1,4]diazepine-2-carboxamide], the EC50 lay within 500 to 1000 nM.

Staying with this assay, now noted: Hepatitis B virus, HepG2.2.15, Activity in BDNA-assay.
As to `CNC(=O)C1CN(C)C(=O)c2c3c(nn2C1)CCN(C(=O)Nc1ccc(F)c(Cl)c1)C3` (stereo not drawn) [Compound 031, N2-(3-chloro-4-fluorophenyl)-N8,10-dimethyl-11-oxo-1,3,4,7,8,9,10,11-octahydro-2H-pyrido[4′,3′:3,4]pyrazolo[1,5-a][1,4]diazepine-2,8-dicarboxamide], the EC50 is 1 to 100 nM.
On the same count and under the same terms, then `CC[C@H](O)[C@@H]1CN(C)C(=O)c2c3c(nn2C1)CCN(C(=O)Nc1cc(Cl)c(F)cc1F)C3` (single isomer, unassigned) [Compound 096_E1, (R*)—N-(5-chloro-2,4-difluorophenyl)-8-((S*)-1-hydroxypropyl)-10-methyl-11-oxo-1,3,4,7,8,9,10,11-octahydro-2H-pyrido[4′,3′:3,4]pyrazolo[1,5-a][1,4]diazepine-2-carboxamide], with 1 to 100 nM; and `CCOC(=O)C1(C)CN(C)C(=O)c2c3c(nn2C1)CCN(C(=O)Nc1ccc(F)c(Cl)c1)C3` (stereo not drawn) [Compound 052, ethyl 2-((3-chloro-4-fluorophenyl)carbamoyl)-8,10-dimethyl-11-oxo-1,3,4,7,8,9,10,11-octahydro-2H-pyrido[4′,3′:3,4]pyrazolo[1,5-a][1,4]diazepine-8-carboxylate], with 100 to 500 nM; and `CN1CC(CN2CCCC2)Cn2nc3c(c2C1=O)CN(C(=O)Nc1ccc(F)c(Cl)c1)CC3` (stereo not drawn) [Compound 069, N-(3-chloro-4-fluorophenyl)-10-methyl-11-oxo-8-(pyrrolidin-1-ylmethyl)-1,3,4,7,8,9,10,11-octahydro-2H-pyrido[4′,3′:3,4]pyrazolo[1,5-a][1,4]diazepine-2-carboxamide], with 1 to 100 nM.
Turning to `Cc1cc(NC(=O)N2Cc3c(nn4c3C(=O)N(CC(F)F)CCC4)C[C@H]2C)ccc1F` [Compound 077, (R)-10-(2,2-difluoroethyl)-N-(4-fluoro-3-methylphenyl)-3-methyl-11-oxo-1,3,4,7,8,9,10,11-octahydro-2H-pyrido[4′,3′:3,4]pyrazolo[1,5-a][1,4]diazepine-2-carboxamide], the EC50 is 1 to 100 nM.
Same read-out and setting: then `CCC(O)C1CN(C)C(=O)c2c3c(nn2C1)CC(C)N(C(=O)Nc1ccc(F)c(Br)c1)C3` [Compound 109_D1, (3R,8 S*)—N-(3-bromo-4-fluorophenyl)-8-((R)-1-hydroxypropyl)-3,10-dimethyl-11-oxo-1,3,4,7,8,9,10,11-octahydro-2H-pyrido[4′,3′:3,4]pyrazolo[1,5-a][1,4]diazepine-2-carboxamide], with 1 to 100 nM.
Same read-out and setting: to `CN1CC(CN)Cn2nc3c(c2C1=O)CN(C(=O)Nc1ccc(F)c(C(F)(F)F)c1)CC3` (stereo not drawn) [Compound 093, 8-(aminomethyl)-N-[4-fluoro-3-(trifluoromethyl)phenyl]-10-methyl-11-oxo-1,3,4,7,8,9-hexahydropyrido[2,3]pyrazolo[2,4-b][1,4]diazepine-2-carboxamide] belongs 100 to 500 nM; to `C[C@@H]1Cc2nn3c(c2CN1C(=O)Nc1ccc(F)c(C(F)(F)F)c1)C(=O)N(CC(F)F)CCC3` [Compound 073, (R)-10-(2,2-difluoroethyl)-N-(4-fluoro-3-(trifluoromethyl)phenyl)-3-methyl-11-oxo-1,3,4,7,8,9,10,11-octahydro-2H-pyrido[4′,3′:3,4]pyrazolo[1,5-a][1,4]diazepine-2-carboxamide], 1 to 100 nM.
Same read-out and setting: to `CCC(O)C1CN(C)C(=O)c2c3c(nn2C1)CCN(C(=O)Nc1cc(Cl)c(F)cc1F)C3` (single isomer, unassigned) [Compound 096_E2, (S*)—N-(5-chloro-2,4-difluorophenyl)-8-((R*)-1-hydroxypropyl)-10-methyl-11-oxo-1,3,4,7,8,9,10,11-octahydro-2H-pyrido[4′,3′:3,4]pyrazolo[1,5-a][1,4]diazepine-2-carboxamide] belongs 100 to 500 nM; to `CN1CC(F)Cn2nc3c(c2C1=O)CN(C(=O)Nc1cc(Cl)c(F)cc1F)CC3` (stereo not drawn) [Compound 012, N-(5-chloro-2,4-difluorophenyl)-8-fluoro-10-methyl-11-oxo-1,3,4,7,8,9,10,11-octahydro-2H-pyrido[4′,3′:3,4]pyrazolo[1,5-a][1,4]diazepine-2-carboxamide], 1 to 100 nM; to `CN1CCC(C(=O)O)n2nc3c(c2C1=O)CN(C(=O)Nc1ccc(F)c(Cl)c1)CC3` (stereo not drawn) [Compound 113, 2-((3-chloro-4-fluorophenyl)carbamoyl)-10-methyl-11-oxo-1,3,4,7,8,9,10,11-octahydro-2H-pyrido[4′,3′:3,4]pyrazolo[1,5-a][1,4]diazepine-7-carboxylic acid], > 1000 nM.
As for `CCCC(O)C1CN(C)C(=O)c2c3c(nn2C1)CCN(C(=O)Nc1ccc(F)c(Cl)c1)C3` (stereo not drawn) [Compound 106, N-(3-chloro-4-fluoro-phenyl)-8-(1-hydroxybutyl)-10-methyl-1-oxo-1,3,4,7,8,9-hexahydropyrido[2,3]pyrazolo[2,4-b][1,4]diazepine-2-carboxamide], the concentration giving a half-maximal response (EC50) lay in the range of 1 to 100 nM.
Same read-out and setting: to `CN1C(=O)c2c3c(nn2CCC1(C)C(=O)O)CCN(C(=O)Nc1ccc(F)c(Cl)c1)C3` (stereo not drawn) [Compound 062, 2-((3-chloro-4-fluorophenyl)carbamoyl)-9,10-dimethyl-11-oxo-1,3,4,7,8,9,10,11-octahydro-2H-pyrido[4′,3′:3,4]pyrazolo[1,5-a][1,4]diazepine-9-carboxylic acid] belongs > 1000 nM.
On the same count and under the same terms, then `CNC1CN(C)C(=O)c2c3c(nn2C1)CCN(C(=O)Nc1ccc(F)c(Cl)c1)C3` (stereo not drawn) [Compound 050, N-(3-chloro-4-fluorophenyl)-10-methyl-8-(methylamino)-11-oxo-1,3,4,7,8,9,10,11-octahydro-2H-pyrido[4′,3′:3,4]pyrazolo[1,5-a][1,4]diazepine-2-carboxamide], with 100 to 500 nM; and `CN1CC(F)Cn2nc3c(c2C1=O)CN(C(=O)Nc1cc(Br)c(F)cc1F)CC3` (stereo not drawn) [Compound 013, N-(5-bromo-2,4-difluorophenyl)-8-fluoro-10-methyl-11-oxo-1,3,4,7,8,9,10,11-octahydro-2H-pyrido[4′,3′:3,4]pyrazolo[1,5-a][1,4]diazepine-2-carboxamide], with 1 to 100 nM.
On the same count and under the same terms, then `CN1CC(CNCC(F)F)Cn2nc3c(c2C1=O)CN(C(=O)Nc1ccc(F)c(C#N)c1)CC3` (stereo not drawn) [Compound 118, N-(3-cyano-4-fluorophenyl)-8-(((2,2-difluoroethyl)amino)methyl)-10-methyl-11-oxo-1,3,4,7,8,9,10,11-octahydro-2H-pyrido[4′,3′:3,4]pyrazolo[1,5-a][1,4]diazepine-2-carboxamide], with 1 to 100 nM; and `C[C@@H]1Cc2nn3c(c2CN1C(=O)Nc1ccc(F)c(C(F)(F)F)c1)C(=O)N(C)C[C@@H](COCC(F)F)C3` [Compound 135_D1, (3R,8R)-8-((2,2-difluoroethoxy)methyl)-N-(4-fluoro-3-(trifluoromethyl)phenyl)-3,10-dimethyl-11-oxo-1,3,4,7,8,9,10,11-octahydro-2H-pyrido[4′,3′:3,4]pyrazolo[1,5-a][1,4]diazepine-2-carboxamide], with 1 to 100 nM; and `CN1CC(N2CCC2)Cn2nc3c(c2C1=O)CN(C(=O)Nc1ccc(F)c(Cl)c1)CC3` (stereo not drawn) [Compound 023, 8-(azetidin-1-yl)-N-(3-chloro-4-fluorophenyl)-10-methyl-11-oxo-1,3,4,7,8,9,10,11-octahydro-2H-pyrido[4′,3′:3,4]pyrazolo[1,5-a][1,4]diazepine-2-carboxamide], with 1 to 100 nM.
As for `CCC(O)C1CN(C)C(=O)c2c3c(nn2C1)CCN(C(=O)Nc1ccc(F)c(Cl)c1)C3` (stereo not drawn) [Compound 035], the EC50 was 1 to 100 nM.
